Laboratory results from patent US10239890B2, “Broad spectrum beta-lactamase inhibitors” (Gladius Pharmaceuticals Corporation, priority 2007, dated 2019).

Key:
[1] = molecular target: T1, beta-lactamase from Enterobacter cloacae (Enterobacter cloacae, UniProt P05364); assay: Assay (I) for beta-lactamase activity (Cefesone hydrolysis, absorbance at 486 nm), product inhibition; format: biochemical; conditions: Cefesone substrate
T1 construct: purchased Sigma-Aldrich, St. Louis, Mo
Method: A chromogenic cephalosporin, Cefesone, is synthesized and isolated as described by Sutton et al. and used to monitor p-lactamase activity. A typical assay monitors the hydrolysis of Cefesone via the formation of a species which absorbs at 486 nm (molar absorptivity constant 16,000). Absorption is monitored as a function of time in 0.1 M, pH 7.0 sodium phosphate, 0.2 mM Cefesone and 4 volume percent DMSO cosolvent at 30° C. using a Beckman DU-40 spectrophotometer having a circulating water bath attached to the cuvette holder. The assay is initiated by addition and mixing of an appropriate amount of beta-lactamase.
The beta-lactamase assay using enzyme fro Enterobacter cloacae (Sigma-Aldrich, St. Louis, Mo.) was carried out as in Example 1 (assay I) above with compound 2. After the initial rate was determined the reaction was allowed to continue for two hours. Theoretical maximal absorbance at 486 nm is approximately 1.6 while the observed final absorbance was consistently 0.26.
where E is enzyme, S is substrate, P is product, ES is the enzyme-substrate complex, EP is the enzyme product complex, and k1, k−1, k2, and k−2 are rate constants and kcat is the catalytic rate constant. In the case of product inhibition k−2 is large with respect to k2, so as enzyme product accumulates, more enzyme is tied up in the enzyme-product complex and is unavailable for catalysis.

[2] = molecular target: T1, beta-lactamase from Enterobacter cloacae; assay: Time dependent inhibition of beta-lactamase, with dialysis to test for return of activity; format: biochemical; conditions: 10 mL 0.1 units/mL beta-lactamase with and without 500 microM inhibitor, dialysed against 1 L 0.1 M sodium phosphate buffer (pH 7.0) with one exchange

T1 sequence (P05364 21-381): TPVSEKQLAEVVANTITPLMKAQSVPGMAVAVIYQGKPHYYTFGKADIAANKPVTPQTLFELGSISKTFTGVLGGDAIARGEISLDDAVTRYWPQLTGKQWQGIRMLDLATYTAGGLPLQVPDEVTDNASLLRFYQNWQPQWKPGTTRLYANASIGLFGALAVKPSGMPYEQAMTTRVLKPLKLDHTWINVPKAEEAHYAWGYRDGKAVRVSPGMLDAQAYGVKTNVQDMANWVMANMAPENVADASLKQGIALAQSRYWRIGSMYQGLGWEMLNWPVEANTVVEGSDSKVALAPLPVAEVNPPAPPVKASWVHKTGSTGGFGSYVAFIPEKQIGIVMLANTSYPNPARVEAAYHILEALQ

| SMILES | observed final absorbance at 486 nm ([1]; reaction continued for two hours after the initial rate, theoretical maximal absorbance approximately 1.6) | type of inhibition inferred from final absorbance ([1]; reaction continued for two hours) | return of beta-lactamase activity after dialysis [2] |
| --- | --- | --- | --- |
| O=C(Cc1ccccc1)NC1C(=O)N2C(C(=O)O)=C(/C=C/C3CC3)CSC12 (stereo not shown) [compound 2, 3-vinylcyclopropane-7-(2-phenylacetamido)-3-Cephem-4-carboxylic acid] | 0.26 | consistent with product inhibition | no return of activity |
| O=C(Cc1ccccc1)NC1C(=O)N2C(C(=O)O)=C(/C=C/c3ccc(CBr)cc3)CSC12 (stereo not shown) [compound 4, 3-(1-bromomethyl-4-vinylbenzene)-7-(2-phenylacetamido)-3-Cephem-4-carboxylic acid] | – | – | no return of activity |
